Values quoted from earlier work as cited in patent US10543174B2, “Modified release tablet composition comprising mirabegron” (SYNTHON B.V., priority 2016, dated 2020).

Tests used:
[1] = presence of food in the GI tract

Structure (SMILES): Nc1nc(CC(=O)Nc2ccc(CCNC[C@H](O)c3ccccc3)cc2)cs1 [Mirabegron, (R)-2-(2-aminothiazol-4-yl)-4′-[2-[(2-hydroxy-2-phenylethyl)amino]ethyl]acetic acid anilide]
- solubility (BCS): high solubility
- solubility in water (between neutral to acidic pH, EMA assessment report of Betmiga): soluble
- bioavailability, food effect [1]: affected by the presence of food
